From US8017585B2, “CXCR4 antagonist and use thereof” (priority 2002, dated 2011)
Numbered stars: 1 amine (or outer) side, 2 acyl side, 3 side chain; on linkers, the order of the positions; unused ones are H or OH. Bridge positions count the residues as written; N and C are the ends. Square brackets hold non-standard residues; d marks the D form. Peptide text beside a SMILES is read from it. * marks the point of attachment. X4 = CN(C)C(=N[C@@H](CCCNC(=N)N)C(=O)*)N(C)C; Pentanoyl(5-guanidino) = NC(N)=NCCCCC(=O)*; 2Nal = N[C@@H](Cc1ccc2ccccc2c1)C(=O)O; X1 = N=C(N)NCCC[C@H](NC(=N)N)C(=O)*; Glutaryl = O=C(CCCC(=O)[*:2])[*:1]; Benzoyl(4-F) = O=C(c1ccc(F)cc1)*; dCit = NC(=O)NCCC[C@@H](N)C(=O)O; Cit = NC(=O)NCCC[C@H](N)C(=O)O; Suc = O=C(CCC(=O)[*:2])[*:1]; Ahx = NCCCCCC(=O)O; Ava = NCCCCC(=O)O

These compounds were tested against T1, CXCR4 receptor (Homo sapiens, UniProt P61073) (assay: Inhibition of 125I-CXCL12 binding to CXCR4 receptor on Jurkat cells). Conditions: Table 1, 125I-CXCL12, 1 hour at room temperature, compounds as acetate salt, read-out: IC50 (nM), inhibitory activity against CXCL12 binding to CXCR4 receptor.
T1 construct: 50 μL of Jurkat human T-cell leukemia cells (6×10^6 cells/mL) suspended in buffer; endogenous in cells; host or cells: Jurkat human T-cell leukemia cells
T1 sequence (P61073 whole entry): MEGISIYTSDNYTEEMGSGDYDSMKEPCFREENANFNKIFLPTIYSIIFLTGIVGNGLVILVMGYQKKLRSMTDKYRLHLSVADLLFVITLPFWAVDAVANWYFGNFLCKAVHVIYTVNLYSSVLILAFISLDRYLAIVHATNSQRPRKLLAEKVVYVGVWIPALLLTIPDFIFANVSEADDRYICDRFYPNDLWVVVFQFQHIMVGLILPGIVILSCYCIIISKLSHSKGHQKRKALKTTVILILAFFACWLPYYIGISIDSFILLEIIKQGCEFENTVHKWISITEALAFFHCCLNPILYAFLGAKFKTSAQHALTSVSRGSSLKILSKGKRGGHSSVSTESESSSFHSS
Experimental: After reaction, suction was made toward the reaction solution by 96 well GF/C filter plate, and each well's radioactivity was measured by top count. As the radioactivity index of 100% when the test compound was not added, and 0% when 100 nM of non-radioisotope-labeled CXCL12 was added, the inhibitory activity of each test compound was measured.
`N=C(N)NCCCCC(=O)N[C@@H](CCCNC(=N)N)C(=O)N[C@@H](Cc1ccc2ccccc2c1)C(=O)N[C@H]1CSSC[C@@H](C(=O)N[C@@H](CCCNC(=N)N)C(N)=O)NC(=O)[C@H](CCCNC(N)=O)NC(=O)[C@H](CCCNC(=N)N)NC(=O)[C@H](Cc2ccc(O)cc2)NC(=O)[C@@H]2CCCN2C(=O)[C@@H](CCC(=O)O)NC(=O)[C@H](CCCCN)NC(=O)[C@H](CCCNC(N)=O)NC(=O)[C@H](Cc2ccc(O)cc2)NC1=O` [TF8, desamino-R-Arg-Nal-Cys-Tyr-Cit-Lys-DGlu-Pro-Tyr-Arg-Cit-Cys-Arg-NH2] ({Pentanoyl(5-guanidino)}-R[2Nal]CY[Cit]K[dE]PYR[Cit]CR-NH2; disulfide 3-12) gave an IC50 of 8.2 nM. Work on `N=C(N)NCCC[C@H](NC(=O)[C@@H]1CSSC[C@H](NC(=O)[C@H](Cc2ccc3ccccc3c2)NC(=O)[C@H](CCCNC(=N)N)NC(=O)[C@@H](N)CCCNC(=N)N)C(=O)N[C@@H](Cc2ccc(O)cc2)C(=O)N[C@H](CCC(=O)O)C(=O)N[C@@H](CCCCN)C(=O)N[C@H](CCCNC(N)=O)C(=O)N2CCC[C@H]2C(=O)N[C@@H](Cc2ccc(O)cc2)C(=O)N[C@@H](CCCNC(=N)N)C(=O)N[C@@H](CCCNC(N)=O)C(=O)N1)C(N)=O` [TE14012, H-Arg-Arg-Nal-Cys-Tyr-DGlu-Lys-DCit-Pro-Tyr-Arg-Cit-Cys-Arg-NH2] (H-RR[2Nal]CY[dE]K[dCit]PYR[Cit]CR-NH2; disulfide 4-13) yielded an IC50 of 5.4 nM. `N=C(N)NCCC[C@H](NC(=O)[C@@H]1CSSC[C@H](NC(=O)[C@H](Cc2ccc3ccccc3c2)NC(=O)[C@H](CCCNC(=N)N)NC(=O)CCCC(=O)O)C(=O)N[C@@H](Cc2ccc(O)cc2)C(=O)N[C@@H](CCCNC(N)=O)C(=O)N[C@@H](CCCCN)C(=O)N[C@H](CCC(=O)O)C(=O)N2CCC[C@H]2C(=O)N[C@@H](Cc2ccc(O)cc2)C(=O)N[C@@H](CCCNC(=N)N)C(=O)N[C@@H](CCCNC(N)=O)C(=O)N1)C(N)=O` [TF11, glutaryl-Arg-Nal-Cys-Tyr-Cit-Lys-DGlu-Pro-Tyr-Arg-Cit-Cys-Arg-NH2] (Glutaryl-R[2Nal]CY[Cit]K[dE]PYR[Cit]CR-NH2; disulfide 3-12) showed an IC50 of 630 nM. For `N=C(N)NCCC[C@H](NC(=O)[C@@H]1CSSC[C@H](NC(=O)[C@H](Cc2ccc3ccccc3c2)NC(=O)[C@H](CCCNC(=N)N)NC(=N)N)C(=O)N[C@@H](Cc2ccc(O)cc2)C(=O)N[C@@H](CCCNC(N)=O)C(=O)N[C@@H](CCCCN)C(=O)N[C@H](CCC(=O)O)C(=O)N2CCC[C@H]2C(=O)N[C@@H](Cc2ccc(O)cc2)C(=O)N[C@@H](CCCNC(=N)N)C(=O)N[C@@H](CCCNC(N)=O)C(=O)N1)C(N)=O` [TF9, guanyl-Arg-Nal-Cys-Tyr-Cit-Lys-DGlu-Pro-Tyr-Arg-Cit-Cys-Arg-NH2] (X1-[2Nal]CY[Cit]K[dE]PYR[Cit]CR-NH2; disulfide 2-11), the IC50 was 250 nM. `N=C(N)NCCC[C@H](NC(=O)[C@@H]1CSSC[C@H](NC(=O)[C@H](Cc2ccc3ccccc3c2)NC(=O)[C@H](CCCNC(=N)N)NC(=O)CCC(=O)O)C(=O)N[C@@H](Cc2ccc(O)cc2)C(=O)N[C@@H](CCCNC(N)=O)C(=O)N[C@@H](CCCCN)C(=O)N[C@H](CCC(=O)O)C(=O)N2CCC[C@H]2C(=O)N[C@@H](Cc2ccc(O)cc2)C(=O)N[C@@H](CCCNC(=N)N)C(=O)N[C@@H](CCCNC(N)=O)C(=O)N1)C(N)=O` [TF10, succinyl-Arg-Nal-Cys-Tyr-Cit-Lys-DGlu-Pro-Tyr-Arg-Cit-Cys-Arg-NH2] (Suc-R[2Nal]CY[Cit]K[dE]PYR[Cit]CR-NH2; disulfide 3-12) gave an IC50 of 48 nM. Compound `N=C(N)NCCC[C@H](NC(=O)[C@@H]1CSSC[C@H](NC(=O)[C@H](Cc2ccc3ccccc3c2)NC(=O)[C@H](CCCNC(=N)N)NC(=O)[C@@H](N)CCCNC(=N)N)C(=O)N[C@@H](Cc2ccc(O)cc2)C(=O)N[C@@H](CCCNC(N)=O)C(=O)N[C@@H](CCCCN)C(=O)N[C@H](CCC(=O)O)C(=O)N2CCC[C@H]2C(=O)N[C@@H](Cc2ccc(O)cc2)C(=O)N[C@@H](CCCNC(=N)N)C(=O)N[C@@H](CCCNC(N)=O)C(=O)N1)C(N)=O` [TE14011, H-Arg-Arg-Nal-Cys-Tyr-Cit-Lys-DGlu-Pro-Tyr-Arg-Cit-Cys-Arg-NH2] (H-RR[2Nal]CY[Cit]K[dE]PYR[Cit]CR-NH2; disulfide 4-13) has an IC50 of 2.9 nM. `CC(=O)N[C@@H](CCCNC(=N)N)C(=O)N[C@@H](CCCNC(=N)N)C(=O)N[C@@H](Cc1ccc2ccccc2c1)C(=O)N[C@H]1CSSC[C@@H](C(=O)N[C@@H](CCCNC(=N)N)C(N)=O)NC(=O)[C@H](CCCNC(N)=O)NC(=O)[C@H](CCCNC(=N)N)NC(=O)[C@H](Cc2ccc(O)cc2)NC(=O)[C@@H]2CCCN2C(=O)[C@@H](CCC(=O)O)NC(=O)[C@H](CCCCN)NC(=O)[C@H](CCCNC(N)=O)NC(=O)[C@H](Cc2ccc(O)cc2)NC1=O` [TF1, Ac-Arg-Arg-Nal-Cys-Tyr-Cit-Lys-DGlu-Pro-Tyr-Arg-Cit-Cys-Arg-NH2] (Ac-RR[2Nal]CY[Cit]K[dE]PYR[Cit]CR-NH2; disulfide 4-13) was tested, and the IC50 was 11 nM. Work on `CN(C)C(=N[C@@H](CCCNC(=N)N)C(=O)N[C@@H](CCCNC(=N)N)C(=O)N[C@@H](Cc1ccc2ccccc2c1)C(=O)N[C@H]1CSSC[C@@H](C(=O)N[C@@H](CCCNC(=N)N)C(N)=O)NC(=O)[C@H](CCCNC(N)=O)NC(=O)[C@H](CCCNC(=N)N)NC(=O)[C@H](Cc2ccc(O)cc2)NC(=O)[C@@H]2CCCN2C(=O)[C@@H](CCCNC(N)=O)NC(=O)[C@H](CCCCN)NC(=O)[C@H](CCCNC(N)=O)NC(=O)[C@H](Cc2ccc(O)cc2)NC1=O)N(C)C` [TF18, TMguanyl-Arg-Arg-Nal-Cys-Tyr-Cit-Lys-DCit-Pro-Tyr-Arg-Cit-Cys-Arg-NH2] (X4-R[2Nal]CY[Cit]K[dCit]PYR[Cit]CR-NH2; disulfide 3-12) yielded an IC50 of 8 nM. `N=C(N)NCCC[C@H](NC(=O)[C@@H]1CSSC[C@H](NC(=O)[C@H](Cc2ccc3ccccc3c2)NC(=O)[C@H](CCCNC(=N)N)NC(=O)[C@@H](N)CCCNC(=N)N)C(=O)N[C@@H](Cc2ccc(O)cc2)C(=O)N[C@H](CCC(=O)O)C(=O)N[C@@H](CCCCN)C(=O)N[C@H](CCC(=O)O)C(=O)N2CCC[C@H]2C(=O)N[C@@H](Cc2ccc(O)cc2)C(=O)N[C@@H](CCCNC(=N)N)C(=O)N[C@@H](CCCNC(N)=O)C(=O)N1)C(N)=O` [TE14013, H-Arg-Arg-Nal-Cys-Tyr-DGlu-Lys-DGlu-Pro-Tyr-Arg-Cit-Cys-Arg-NH2] (H-RR[2Nal]CY[dE]K[dE]PYR[Cit]CR-NH2; disulfide 4-13) was tested, and the IC50 was 9.3 nM. Compound `N=C(N)NCCC[C@H](NC(=O)[C@@H]1CSSC[C@H](NC(=O)[C@H](Cc2ccc3ccccc3c2)NC(=O)[C@H](CCCNC(=N)N)NC(=O)[C@H](CCCNC(=N)N)NC(=O)CCCCCN)C(=O)N[C@@H](Cc2ccc(O)cc2)C(=O)N[C@@H](CCCNC(N)=O)C(=O)N[C@@H](CCCCN)C(=O)N[C@H](CCCNC(N)=O)C(=O)N2CCC[C@H]2C(=O)N[C@@H](Cc2ccc(O)cc2)C(=O)N[C@@H](CCCNC(=N)N)C(=O)N[C@@H](CCCNC(N)=O)C(=O)N1)C(N)=O` [TF19, ACA-Arg-Arg-Nal-Cys-Tyr-Cit-Lys-DCit-Pro-Tyr-Arg-Cit-Cys-Arg-NH2] (H-[Ahx]RR[2Nal]CY[Cit]K[dCit]PYR[Cit]CR-NH2; disulfide 5-14) has an IC50 of 4.5 nM. `N=C(N)NCCC[C@H](NC(=O)[C@@H]1CSSC[C@H](NC(=O)[C@H](Cc2ccc3ccccc3c2)NC(=O)[C@H](CCCNC(=N)N)NC(=O)[C@H](CCCNC(=N)N)NC(=O)c2ccc(F)cc2)C(=O)N[C@@H](Cc2ccc(O)cc2)C(=O)N[C@@H](CCCNC(N)=O)C(=O)N[C@@H](CCCCN)C(=O)N[C@H](CCC(=O)O)C(=O)N2CCC[C@H]2C(=O)N[C@@H](Cc2ccc(O)cc2)C(=O)N[C@@H](CCCNC(=N)N)C(=O)N[C@@H](CCCNC(N)=O)C(=O)N1)C(N)=O` [TF5, 4F-benzoyl-Arg-Arg-Nal-Cys-Tyr-Cit-Lys-DGlu-Pro-Tyr-Arg-Cit-Cys-Arg-NH2] ({Benzoyl(4-F)}-RR[2Nal]CY[Cit]K[dE]PYR[Cit]CR-NH2; disulfide 4-13) gave an IC50 of 2.8 nM. With `N=C(N)NCCC[C@H](NC(=O)[C@@H]1CSSC[C@H](NC(=O)[C@H](Cc2ccc3ccccc3c2)NC(=O)[C@@H](N)CCCNC(=N)N)C(=O)N[C@@H](Cc2ccc(O)cc2)C(=O)N[C@@H](CCCNC(N)=O)C(=O)N[C@@H](CCCCN)C(=O)N[C@H](CCC(=O)O)C(=O)N2CCC[C@H]2C(=O)N[C@@H](Cc2ccc(O)cc2)C(=O)N[C@@H](CCCNC(=N)N)C(=O)N[C@@H](CCCNC(N)=O)C(=O)N1)C(N)=O` [TF17, H-Arg-Nal-Cys-Tyr-Cit-Lys-DGlu-Pro-Tyr-Arg-Cit-Cys-Arg-NH2] (H-R[2Nal]CY[Cit]K[dE]PYR[Cit]CR-NH2; disulfide 3-12) the IC50 was 79 nM. For `N=C(N)NCCC[C@H](NC(=O)[C@@H]1CSSC[C@H](NC(=O)[C@H](Cc2ccc3ccccc3c2)NC(=O)[C@H](CCCNC(=N)N)NC(=O)[C@H](CCCNC(=N)N)NC(=N)N)C(=O)N[C@@H](Cc2ccc(O)cc2)C(=O)N[C@@H](CCCNC(N)=O)C(=O)N[C@@H](CCCCN)C(=O)N[C@H](CCC(=O)O)C(=O)N2CCC[C@H]2C(=O)N[C@@H](Cc2ccc(O)cc2)C(=O)N[C@@H](CCCNC(=N)N)C(=O)N[C@@H](CCCNC(N)=O)C(=O)N1)C(N)=O` [TF2, guanyl-Arg-Arg-Nal-Cys-Tyr-Cit-Lys-DGlu-Pro-Tyr-Arg-Cit-Cys-Arg-NH2] (X1-R[2Nal]CY[Cit]K[dE]PYR[Cit]CR-NH2; disulfide 3-12), the IC50 was 3.3 nM. For `N=C(N)NCCC[C@H](NC(=O)[C@@H]1CSSC[C@H](NC(=O)[C@H](Cc2ccc3ccccc3c2)NC(=O)[C@H](CCCNC(=N)N)NC(=O)CCCCN)C(=O)N[C@@H](Cc2ccc(O)cc2)C(=O)N[C@@H](CCCNC(N)=O)C(=O)N[C@@H](CCCCN)C(=O)N[C@H](CCC(=O)O)C(=O)N2CCC[C@H]2C(=O)N[C@@H](Cc2ccc(O)cc2)C(=O)N[C@@H](CCCNC(=N)N)C(=O)N[C@@H](CCCNC(N)=O)C(=O)N1)C(N)=O` [TF7, APA-Arg-Nal-Cys-Tyr-Cit-Lys-DGlu-Pro-Tyr-Arg-Cit-Cys-Arg-NH2] (H-[Ava]R[2Nal]CY[Cit]K[dE]PYR[Cit]CR-NH2; disulfide 4-13), the IC50 was 5.7 nM.
